According to publication PMC4865847, “Putative histidine kinase inhibitors with antibacterial effect against multi-drug resistant clinical isolates identified by in vitro and in silico screens” (Scientific Reports, 2016):
Values after ≈ are worked out from the molar mass of the structure shown. Where two headings read alike, the source gives them in different places.

Legend:
S. aureus PhoR (PhoR^S) = S. aureus PhoR (PhoR^S) (Staphylococcus aureus, UniProt Q2FXN7); experiment: In vitro autophosphorylation kinase assay with γ-32P-ATP, PhoR^S; format: biochemical; settings: autophosphorylation, one time point (30 sec), 10% DMSO
Description: (§1) To evaluate the inhibitory capacity of selected hits from DSF, SBVS and LBSS in vitro autophosphorylation kinase assays with γ-^32P-ATP were performed as previously described. Ligands were dissolved in 100% DMSO. […] Controls lacking ligands contained an equal concentration of DMSO. Inhibition of autophosphorylation was determined by incubating 0.12 mg/ml (≈4 μM) HK and up to 20 mM fragment in kinase buffer (50 mM Tris HCl, pH 8.5, 50 mM KCl, 5 mM MgCl2, 0.5 mM EDTA and 0.1 mM DTT). Autophosporylation reactions were initiated by addition of 0.1 μCi/μl γ-^32P-ATP containing from 0.03 to 0.06 μM ATP (final concentrations). Autophosphorylation was quenched with 2xSDS-PAGE sample buffer supplemented with 50 mM EDTA. Samples were applied without heating to 15% (w/v) Tris-glycine SDS-polyacrylamide gels. After electrophoresis, the bottoms of the gels were removed to lower the background from the unincorporated radiolabeled ATP. Gels were dried without staining on a Bio-Rad Gel Air drying system and the phosphorylated protein was quantified by phosphor-imaging. Prism GraphPad was used for curve fitting and statistical analysis.

E. coli PhoR (PhoR^E) = target: T1, E. coli PhoR (PhoR^E) (Escherichia coli, UniProt P08400); experiment: In vitro autophosphorylation kinase assay with γ-32P-ATP, PhoR^E; format: biochemical; settings: for IC50: autophosphorylation, one time point (30 sec), 10% DMSO
T1 construct: The catalytic portion (DHp and CA domain) of E. coli PhoR (PhoR^E); made in house; host or cells: E. coli RIL
Description: as §1, with “Samples were applied without heating to 15% (w/v) Tris-glycine SDS-polyacrylamide gels.” left out

T. maritima HK853 = target: T2, T. maritima HK853 (Thermotoga maritima, UniProt Q9WZV7); experiment: In vitro autophosphorylation kinase assay with γ-32P-ATP, HK853; format: biochemical
T2 sequence (Q9WZV7 232-489): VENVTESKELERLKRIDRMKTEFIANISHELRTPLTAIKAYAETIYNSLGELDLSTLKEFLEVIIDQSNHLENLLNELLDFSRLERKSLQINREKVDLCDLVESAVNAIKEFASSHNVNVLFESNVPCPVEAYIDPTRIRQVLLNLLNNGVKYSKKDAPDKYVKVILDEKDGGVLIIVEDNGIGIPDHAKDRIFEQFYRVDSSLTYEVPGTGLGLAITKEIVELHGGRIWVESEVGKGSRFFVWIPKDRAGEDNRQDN
Description: as §1

S. pneumoniae WalK = target: T3, S. pneumoniae WalK (Streptococcus pneumoniae, UniProt Q8DPL8); experiment: In vitro autophosphorylation kinase assay with γ-32P-ATP, WalK; format: biochemical; settings: autophosphorylation, one time point (30 sec), 10% DMSO
T3 construct: WalK (amino acids from 208 to 449); N-terminal His6-3C site of vector pOPINF (own knowledge of the vector); made in house; host or cells: E. coli RIL
Description: as §1, with “Samples were applied without heating to 15% (w/v) Tris-glycine SDS-polyacrylamide gels.” left out

Staphylococcus aureus = experiment: Antibacterial susceptibility testing (MIC/MBC), S. aureus; format: cell-based; settings: Staphylococcus aureus
Description: (§2) Minimal inhibitory concentrations (MICs) were determined following a standard double-dilution method. […] For S. pneumoniae MICs were determined by adapting the standard double-dilution method to anaerobic conditions and of this microorganism (use of Todd Hewitt Yeast extract with 200 U/mL of catalase and continuous monitoring of growth).

[1] = tested on: Staphylococcus epidermidis; experiment: Antibacterial susceptibility testing (MIC/MBC), S. epidermidis; format: cell-based; settings: Staphylococcus epidermidis
Description: as §2

Escherichia coli = experiment: Antibacterial susceptibility testing (MIC/MBC), E. coli; format: cell-based; settings: Escherichia coli, read-out: MIC E. coli CFT 073
Description: as §2

[2] = Solubility in kinase buffer; format: physicochemical; settings: kinase buffer in the presence of 10% DMSO
[3] = DSM20231, strain DSM 20231, read-out: MIC S. aureus DSM 20231
[4] = DSM20044, strain DSM 20044, read-out: MIC S. epidermidis DSM 20044

T3 sequence (Q8DPL8 208-449): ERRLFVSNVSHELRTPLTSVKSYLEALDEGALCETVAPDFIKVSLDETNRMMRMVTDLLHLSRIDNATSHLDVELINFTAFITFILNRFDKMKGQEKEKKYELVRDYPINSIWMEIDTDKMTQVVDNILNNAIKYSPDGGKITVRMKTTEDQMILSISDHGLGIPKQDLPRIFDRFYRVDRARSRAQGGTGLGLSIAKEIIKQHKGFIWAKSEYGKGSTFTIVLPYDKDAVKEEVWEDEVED
T1 sequence (P08400 210-425): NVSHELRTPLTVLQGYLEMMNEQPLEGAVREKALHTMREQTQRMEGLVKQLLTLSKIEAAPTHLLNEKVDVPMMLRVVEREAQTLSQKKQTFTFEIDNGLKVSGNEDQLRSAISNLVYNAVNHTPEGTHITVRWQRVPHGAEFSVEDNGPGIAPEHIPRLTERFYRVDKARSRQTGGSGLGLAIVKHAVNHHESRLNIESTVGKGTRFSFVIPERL
Chain of S. aureus PhoR (PhoR^S) (Q2FXN7 entry or part of it): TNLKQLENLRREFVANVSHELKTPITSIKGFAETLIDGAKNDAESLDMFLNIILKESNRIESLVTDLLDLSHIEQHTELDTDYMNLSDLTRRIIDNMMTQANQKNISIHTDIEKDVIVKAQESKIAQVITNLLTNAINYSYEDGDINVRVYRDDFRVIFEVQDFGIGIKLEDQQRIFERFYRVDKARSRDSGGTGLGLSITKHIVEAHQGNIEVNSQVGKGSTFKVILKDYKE

## CC(NCc1cccc2ccccc12)c1cccc(F)c1 (stereo not drawn) [S9]
S. aureus PhoR (PhoR^S); IC50 PhoR^S
  IC50: > 5 mM
E. coli PhoR (PhoR^E); IC50 PhoR^E
  IC50: > 5 mM
T. maritima HK853
  IC50: > 5 mM
S. pneumoniae WalK; IC50 WalK
  IC50: > 5 mM
Staphylococcus aureus; [3]
  MIC: > 500 µg/mL
[1]; [4]
  MIC: > 500 µg/mL
Escherichia coli; strain CFT 073
  MIC: > 500 µg/mL

## Nc1ccc2c(c1)[nH]c1ccccc12 [F2.1]
E. coli PhoR (PhoR^E); 2 mM, 30 sec, compared to negative control
  inhibition at 2000 µM: > 50%
E. coli PhoR (PhoR^E); read-out: IC50 PhoR^E
  IC50: 0.24 mM
S. pneumoniae WalK; read-out: IC50 WalK
  IC50: > 2 mM
Staphylococcus aureus; DSM20231, read-out: MBC S. aureus DSM 20231
  MBC: > 500 µg/mL
Staphylococcus aureus; DSM20231, read-out: MIC S. aureus DSM 20231
  MIC: 8 µg/mL (≈ 43.9 µM)
[1]; DSM20044, read-out: MIC S. epidermidis DSM 20044
  MIC: > 500 µg/mL
Escherichia coli
  MIC: > 500 µg/mL
[2]
  solubility in kinase buffer: good solubility

## CC(NCc1cccc2ccccc12)c1ccc(F)cc1 (stereo not drawn) [S8]
S. aureus PhoR (PhoR^S); read-out: IC50 PhoR^S
  IC50: < 5 mM
E. coli PhoR (PhoR^E); IC50 PhoR^E
  IC50: > 5 mM
T. maritima HK853
  IC50: > 5 mM
S. pneumoniae WalK; IC50 WalK
  IC50: > 5 mM
Staphylococcus aureus; [3]
  MIC: > 500 µg/mL
[1]; [4]
  MIC: > 500 µg/mL
Escherichia coli; strain CFT 073
  MIC: > 500 µg/mL

## CC(OC(=O)c1cccc(S(=O)(=O)N2CCc3ccccc3C2)c1)C(=O)NC(N)=O (stereo not drawn) [S2]
S. aureus PhoR (PhoR^S); IC50 PhoR^S
  IC50: > 5 mM
E. coli PhoR (PhoR^E); IC50 PhoR^E
  IC50: > 5 mM
T. maritima HK853
  IC50: > 5 mM
S. pneumoniae WalK; IC50 WalK
  IC50: > 5 mM
Staphylococcus aureus; [3]
  MIC: > 500 µg/mL
[1]; [4]
  MIC: > 500 µg/mL
Escherichia coli; strain CFT 073
  MIC: > 500 µg/mL

## CC(NC(=O)C1CC(=O)N(c2ccccc2)C1)c1cccc(NC(=O)c2ccccc2)c1 (stereo not drawn) [S3]
S. aureus PhoR (PhoR^S); IC50 PhoR^S
  IC50: > 5 mM
E. coli PhoR (PhoR^E); IC50 PhoR^E
  IC50: > 5 mM
T. maritima HK853
  IC50: > 5 mM
S. pneumoniae WalK; IC50 WalK
  IC50: > 5 mM
Staphylococcus aureus; [3]
  MIC: > 500 µg/mL
[1]; [4]
  MIC: > 500 µg/mL
Escherichia coli; strain CFT 073
  MIC: > 500 µg/mL
